Assay [1] relates to dexamethasone-treated mice. It is filed as in vivo, BALB/c mice. The following applies: for Samples with three or more osteonecrosis characteristics (number/total) / Samples with three or more osteonecrosis characteristics (percent): day 90. Here is the method: FIG. 7. Prevalence of osteonecrosis in dexamethasone-treated mice. Mice were treated for 90 days with dexamethasone (Dex), 4 mg/l in drinking water or placebo (PL) (fresh water). At day 30, the Dex-treated mice were re-randomized to Dex alone, Dex+250 μg/kg LLP2A-Ale, Dex+500 μg/kg LLP2A-Ale, and Dex+750 μg/kg LLP2A-Ale. The LLP2A-Ale treatments were given on days 30, 45, 60, and 75. All mice were euthanized at day 90. Right and left distal femurs were fixed in 10% neutral buffer formalin and decalcified. The specimens were dehydrated, embedded in paraffin, cut into 5 micron sections and H&E stained. The sections were evaluated for osteonecrosis by bright light microscopy using modified criteria reported by Yang et al., J. Orthop. Res., 27:169-75 (2009)), which defines osteonecrosis by the presence of the five following characteristics: (1) empty lacunae, (2) pyknotic osteocyte nuclei in areas of empty lacunae and necrosis of adjacent bone marrow, (3) presence of excessive fat cells in the bone marrow, (4) cartilage degradation, and (5) presence of fibrin thrombi in the blood vessels. Each GC-treated group and placebo group were assessed for all five osteonecrosis characteristics or the presence of at least three of the five osteonecrosis characteristics described above.
The efficacy of LLP2A-Ale was evaluated over a 90 day study using a mouse model of glucocorticoid-induced osteonecrosis. Seven week-old male mice (BALB/c (n=80, Jackson laboratories, USA) were housed in a sanitary ventilated animal room maintained at 20° C. with a 12-hour light/dark cycle. All animals were handled according to the USDA animal care guidelines with the approval of the UC Davis Committee on Animal Research. The mice were given water and standard commercial rodent chow (22/5 Rodent Diet; Teklad, Madison, WI) ad libitum. The animals were weight randomized to either a placebo group (fresh water) or glucocorticoid only (4 mg/L dexamethasone (Dex) in drinking water) and treated for 90 days. At day 30, the Dex-treated mice were then re-randomized to Dex alone, Dex+250 μg/kg LLP2A-Ale, Dex+500 μg/kg LLP2A-Ale and Dex+750 μg/kg LLP2A-Ale. The LLP2A-Ale treatments were given on days 30, 45, 60 and 75. Additionally, 0.1 mg/kg methotrexate was administered twice weekly by subcutaneous injection from day 1-42 in all groups receiving glucocorticoid.
All the mice were euthanized at day 90. The body weights of all the study animals were assessed each week. If the study animals had 10% loss of body weight compared to the previous week, the dose of dexamethasone was reduced to 2 mg/L, until weight gain was observed. All of the animals were injected with calcein (30 mg/kg) and alizarin red (20 mg/kg) at 7 and 2 days before euthanization.
Both the right and left distal femurs were fixed in 10% neutral buffered formalin and were shaken for 3 days, then decalcified in 5% EDTA until the bones were fully decalcified. The specimens were then processed in ascending concentrations of ethanol and embedded in paraffin. Tissue sections were cut into 5 microns sections, stained with hematoxylin and eosin and evaluated for the presence of osteonecrosis by bright field microscopy at 20× magnification. Experimental methods are also described in Mohan et al., Calif Tissue Int (2016) doi:10.1007/s00223-016-0195-6, which is incorporated herein by reference in its entirety for all purposes. Osteonecrosis was detected using modified criteria reported by Yang el al., (a mouse model for glucocorticoid-induced osteonecrosis: Effect of a steroid holiday. J Orthop Res. 2009; 27:169-75) which defines osteonecrosis as requiring all of the following changes: (1) empty lacunae, (2) pyknotic osteocyte nuclei in areas of empty lacunae and necrosis of adjacent bone marrow, (3) presence of excessive fat cells in the bone marrow, (4) cartilage degradation and (5) presence of fibrin thrombi in the blood vessels. […]

The subject of assay [2] is dexamethasone-treated mice. The assay can be described thus: Adipose and sinusoid volume of distal femoral epiphysis, 90 day model. It counts as in vivo, BALB/c mice. Here is the method:
FIG. 10A-10B. Adipose and sinusoid volume of femurs from treated mice. Mice were treated with placebo (PL), dexamethasone alone (Dex), Dex+250 μg/kg LLP2A-Ale, Dex+500 μg/kg LLP2A-Ale, or Dex+750 μg/kg LLP2A-Ale as described above for FIG. 7. (A) Mice were assessed for adipose volume within the distal femoral epiphysis region. […] (B) Mice were assessed for sinusoids in the bone marrow.
Both the right and left distal femurs were fixed in 10% neutral buffered formalin and were shaken for 3 days, then decalcified in 5% EDTA until the bones were fully decalcified. The specimens were then processed in ascending concentrations of ethanol and embedded in paraffin. Tissue sections were cut into 5 microns sections, stained with hematoxylin and eosin and evaluated for the presence of osteonecrosis by bright field microscopy at 20× magnification. Experimental methods are also described in Mohan et al., Calif Tissue Int (2016) doi:10.1007/s00223-016-0195-6, which is incorporated herein by reference in its entirety for all purposes. Osteonecrosis was detected using modified criteria reported by Yang el al., (a mouse model for glucocorticoid-induced osteonecrosis: Effect of a steroid holiday. J Orthop Res. 2009; 27:169-75) which defines osteonecrosis as requiring all of the following changes: (1) empty lacunae, (2) pyknotic osteocyte nuclei in areas of empty lacunae and necrosis of adjacent bone marrow, (3) presence of excessive fat cells in the bone marrow, (4) cartilage degradation and (5) presence of fibrin thrombi in the blood vessels. In addition, trabecular bone volume, adipose volume, sinusoid volume and osteoblast surface at the distal femoral epiphyses were measured. Empty lacunae density was calculated by empty lacunae/total osteocytes within the entire distal femoral epiphysis region for each sample. Each section was scored by two experienced histologists, then a consensus reading was performed by two additional experienced histologists.

The mark [3] stands for this setting: Dex + LLP2A-Ale 250 μg/kg on days 30, 45, 60, 75.
[4] abbreviates: Dex + LLP2A-Ale 500 μg/kg on days 30, 45, 60, 75.
The mark [5] stands for this setting: LLP2A-Ale 750 μg/kg on days 30, 45, 60, 75.

Molecules are shown by their SMILES. Where two headings read alike, the source gives them in different places.

On to `Cc1ccccc1NC(=O)Nc1ccc(CC(=O)N[C@@H](CCCCNC(=O)/C=C/c2cccnc2)C(=O)N[C@@H](CCCC(=O)O)C(=O)NC2(C(=O)NCCOCCOCCNC(=O)CCC(=O)NCCOCCOCCNC(=O)CCC(=O)N[C@@H](CCCCNC(=O)[C@H](N)CSC3CC(=O)N(CC4CCC(C(=O)NCCCC(O)(P(=O)(O)O)P(=O)(O)O)CC4)C3=O)C(N)=O)CCCCC2)cc1` (stereo partly shown) [LLP2A-Ale], for which the “Samples with three or more osteonecrosis characteristics (number/total)” value in assay [1] (setting [3]) was 12/16; in assay [1] (setting [4]), 9/16; in assay [1] (setting [5]), 11/16. Moreover, the “Samples with three or more osteonecrosis characteristics (percent)” value in assay [1] (setting [3]) stood at 75%; in assay [1] (setting [4]), 56%; in assay [1] (setting [5]), 69%. For the same compound, the “Number of mice per group showing all five (or at least three) osteonecrosis characteristics” value in assay [1] (Dex alone vs Dex+LLP2A-Ale groups, day 90 (FIG. 7)) was “decreased”. For the same compound, the “Sinusoid volume on increasing the dose” value in assay [2] (LLP2A-Ale above 250 μg/kg vs 250 μg/kg) was “marginal decrease”. Further, the “Adipose volume within the distal femoral epiphysis” value in assay [2] (all three dosages (250, 500, 750 μg/kg) vs Dex alone, day 90 (FIG. 10A)) was “reduced adipose volumes”. Further, the “Sinusoid volume in the bone marrow” value in assay [2] (all three dosages vs placebo or Dex alone, day 90 (FIG. 10B)) was “increased sinusoid volumes”.

(Values after US12569506B2, “Methods of treating osteonecrosis with LLP2A-bisphosphonate compounds” (The Regents of the University of California, priority 2016, dated 2026).)
